Assay results taken from patent US20210292330A1, “PYRROLIDINE-FUSED HETEROCYCLES” (Erasca, Inc., priority 2020, published 2021).

Target: T1, KRAS 4B G12C protein (Homo sapiens, UniProt P01116, G12C)
T1 construct: This protein contained 188 amino acids in total, including an N-terminal 6-Histidine tag; made in house; host or cells: E. coli BL21
Experiment: In vitro covalent adduct formation (CAF) assay by LC-MS
Assay type: binding
Conditions: compound 10 μM, protein 5 μM, 22° C., percentage of protein bound by the compound
Description: In vitro covalent adduct formation assay: Covalent adduct formation (CAF) reactions between Cys12 of the KRAS 4B G12C protein and some of the compounds of Table 1 were measured in vitro using liquid chromatography-mass spectrometry (LC-MS).
Recombinant Human KRAS 4B protein containing the G12C mutation was used in compound screening experiments. This protein contained 188 amino acids in total, including an N-terminal 6-Histidine tag, followed by a Tobacco Etch Virus (TEV) tag, followed by residues 1-169 of the native KRAS 4B sequence. The exact mass of the protein was 21,310 Da as determined by mass spectrometry. The full amino acid sequence is shown below:
The recombinant protein was expressed in E. coli BL21 cells and purified using affinity chromatography via a Ni-NTA column. […] Pure KRAS 4B G12C protein was diluted to a concentration of 5 μM in Tris Buffered Saline, pH 7.4. The compounds were dissolved in DMSO and added to the diluted protein to make a 10 μM concentration. The total DMSO concentration in the reaction was 4%. The reaction was mixed by pipetting and incubated at 22° C. for one hour. Aliquots of the reaction were taken over time and diluted 2:1 in 0.1% formic acid. The intact mass of the protein samples was measured by LC-MS using a QExactive+ mass spectrometer (Thermo Scientific). An amount of 500 ng total protein was injected onto a C8 reverse phase column, eluted with a seven-minute gradient of 30%-90% acetonitrile/0.1% formic acid, and analyzed for intact mass by the mass spectrometer. Adducts identified were confirmed to be within 1 Dalton of the expected mass, and the relative ratios of free:adduct protein were used to quantify the percentage of protein bound by the compound. CAF reactions were run in duplicate, with a typical variability of ±5%.

| Structure (SMILES) | CAF (10 minutes/60 minutes) at 10 micromolar: 10 minutes | CAF (10 minutes/60 minutes) at 10 micromolar: 60 minutes |
| --- | --- | --- |
| C=CC(=O)N1CCN(c2nc(OC[C@@H]3CCCN3C)nc3c2CN(Cc2c(F)cccc2OC(F)F)C3)C[C@@H]1CC#N [1-58] | 96% | 98% |
| C=CC(=O)N1CCN(c2nc(OC[C@@H]3CCCN3C)nc3c2CN(Cc2c(C)cccc2OC)C3)C[C@@H]1CC#N [1-59] | 46% | 98% |
| C=CC(=O)N1CCN(c2nc(OC[C@@H]3CCCN3C)nc3c2CN(Cc2c(F)cccc2F)C3)C[C@@H]1CC#N [1-61] |  | NA/ 80% |
| C=CC(=O)N1CCN(c2nc(OC[C@@H]3CCCN3C)nc3c2CN(Cc2cc(C(F)F)ccc2C)C3)[C@@H](C)C1 [1-64] | 0%/ 0% | 0%/ 0% |
| C=CC(=O)N1CCN(c2nc(OC[C@@H]3CCCN3C)nc3c2CN(Cc2nc(OC)ccc2Cl)C3)[C@@H](C)C1 [1-65] | 0% | 2% |
| C=CC(=O)N1CCN(c2nc(OCC3CCCC3)nc3c2CN(Cc2c(F)cccc2OC)C3)C[C@@H]1CC#N [1-66] | 1% | 14% |
| C=CC(=O)N1CCN(c2nc(OC[C@@H]3CCCN3C)nc3c2CN(Cc2cc(Cl)ccc2C)C3)C[C@@H]1CC#N [1-67] | 70% | 92% |
| C=CC(=O)N1CCN(c2nc(OC[C@@H]3CCCN3C)nc3c2CN(Cc2cc(OC)ccc2Cl)C3)C[C@@H]1CC#N [1-68] | 90% | 97% |
| C=CC(=O)N1CCN(c2nc(OC[C@@H]3CCCN3C)nc3c2CN(Cc2[nH]c(=O)ccc2Cl)C3)[C@@H](C)C1 [1-69, 6-((4-((S)-4-acryloyl-2-methylpiperazin-1-yl)-2-(((S)-1-methylpyrrolidin-2-yl)methoxy)-5,7-dihydro-6H-pyrrolo[3,4-d]pyrimidin-6-yl)methyl)-5-chloropyridin-2(1H)-one] | 0%/ 0% | 0%/ 0% |
| C=CC(=O)N1CCN(c2nc(OC[C@@H]3CCCN3C)nc3c2CN(Cc2cc(C)ccc2C)C3)C[C@@H]1CC#N [1-70] | 77% | 94% |
| C=CC(=O)N1CCN(c2nc(OCC3CCCC3)nc3c2CN(Cc2c(O)cccc2F)C3)C[C@@H]1CC#N [1-71] | 9% | 45% |
| C=CC(=O)N1CCN(c2nc(OC[C@@H]3CCCN3C)nc3c2CN(C2CCCc4cccc(Cl)c42)C3)C[C@@H]1CC#N (some centres unmarked) [1-72] | 95% | 98% |
| C=CC(=O)N1CCN(c2nc(OC[C@@H]3CCCN3C)nc3c2CN(C(C)c2cc(F)ccc2C)C3)C[C@@H]1CC#N (some centres unmarked) [1-73] | 61% | 86% |
| C=CC(=O)N1CCN(c2nc(OC)nc3c2CN(Cc2cc(OC)ccc2Cl)C3)C[C@@H]1CC#N [1-74] | 2% | 21% |
| C=CC(=O)N1CCN(c2nc(OC[C@@H]3CCCN3C)nc3c2CN(Cc2ccccc2Cl)C3)C[C@@H]1CC#N [1-75] | 96% | 97% |
| C=CC(=O)N1CCN(c2nc(OC)nc3c2CN(Cc2cc(F)ccc2Cl)C3)C[C@@H]1CC#N [1-76] | 0% | 7% |
| C=CC(=O)N1CCN(c2nc(OC[C@@H]3CCCN3C)nc3c2CN(Cc2ccccc2)C3)C[C@@H]1CC#N [1-77] | 27% | 43% |

| Structure (SMILES) | CAF (10 minutes/60 minutes) at 10 micromolar: 10 minutes | CAF (10 minutes/60 minutes) at 10 micromolar: 60 minutes |
| --- | --- | --- |
| C=CC(=O)N1CCN(c2nc(OC)nc3c2CN(Cc2cc(O)ccc2Cl)C3)C[C@@H]1CC#N [1-78] | 89% | 97% |
| C=CC(=O)N1CCN(c2nc(OC[C@@H]3CCCO3)nc3c2CN(Cc2c(F)cccc2OC)C3)C[C@@H]1CC#N [1-79] | 3% | 23% |
| C=CC(=O)N1CCN(c2nc(OC[C@@H]3CCCN3C)nc3c2CN(Cc2cc(C)ccc2Cl)C3)C[C@@H]1CC#N [1-80] | 94% | 96% |
| C=CC(=O)N1CCN(c2nc(OC[C@@H]3CCCN3C)nc3c2CN(Cc2cccc(Cl)c2Cl)C3)C[C@@H]1CC#N [1-81] | 96% | 98% |
| C=CC(=O)N1CCN(c2nc(OC[C@@H]3CCCN3C)nc3c2CN(Cc2c(Cl)cccc2OC(F)F)C3)C[C@@H]1CC#N [1-82] | 94% | 98% |
| C=CC(=O)N1CCN(c2nc(OC[C@@H]3CCCN3C)nc3c2CN(Cc2c(C)cccc2OC(F)F)C3)C[C@@H]1CC#N [1-83] | 97% | 100% |
| C=CC(=O)N1CCN(c2nc(OC[C@@H]3CCCN3C)nc3c2CN(C2CCc4cccc(Cl)c42)C3)C[C@@H]1CC#N (some centres unmarked) [1-84] | 98% | 99% |
| C=CC(=O)N1CCN(c2nc(OC[C@@H]3CCCN3C)nc3c2CN(Cc2c(Cl)cccc2OC(F)F)C3)C[C@@H]1C [1-85] | 0%/ 0% | 0%/ 0% |
| C=CC(=O)N1CCN(c2nc(OC[C@@H]3CCCN3C)nc3c2CN(C2CCOc4ccccc42)C3)C[C@@H]1CC#N (some centres unmarked) [1-86] | 59% | 93% |
| C=C(F)C(=O)N1CCN(c2nc(OC[C@@H]3CCCN3C)nc3c2CN(Cc2cc(O)ccc2Cl)C3)C[C@@H]1CC#N [1-87] | 97% | 99% |
| C=CC(=O)N1CC2COCC(C1)N2c1nc(OC[C@@H]2CCCN2C)nc2c1CN(Cc1cc(OC)ccc1Cl)C2 [1-88] | 0%/ 0% | 0%/ 0% |
| C=CC(=O)N1CC2COCC(C1)N2c1nc(OC[C@@H]2CCCN2C)nc2c1CN(Cc1cc(O)ccc1Cl)C2 [1-90] | 2% | 12% |
| C=CC(=O)N1CCN(c2nc(OC[C@@H]3CCCN3C)nc3c2CN(Cc2c(Cl)cccc2OC(F)F)C3)[C@H](C)C1 [1-91] | 0%/ 0% | 0%/ 0% |
| C=CC(=O)N1CCN(c2nc(OC[C@@H]3CCCN3C)nc3c2CN(Cc2c(Cl)cccc2OC)C3)C[C@@H]1CCO [1-92] | 0%/ 0% | 0%/ 0% |
| C=CC(=O)N1CCN(c2nc(OC[C@@H]3CCCN3C)nc3c2CN(Cc2c(Cl)cccc2OC(F)F)C3)CC1 [1-94] | 0%/ 0% | 0%/ 0% |
| C=CC(=O)N1CCN(c2nc(OC[C@@H]3CCCO3)nc3c2CN(Cc2c(O)cccc2F)C3)C[C@@H]1CC#N [1-95] | 21% | 70% |
